Assay results published in patent US11254668B2, “Pyrazolo[1,5-A]pyrazin-4-yl and related derivatives” (Pfizer Inc., priority 2017, dated 2022).
Read-outs that look alike come from different tables or passages of the source.

Tests used:
TYK2 = TYK2 (Homo sapiens (Human), UniProt P29597); test: JAK Caliper Enzyme Assay at 1 mM ATP, TYK2; format: biochemical
Outline: (§1)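 First, compound was incubated at room temperature with recombinant human kinase domain, a synthetic peptide and 1 mM ATP until 20–30% of peptide was phosphorylated. Next, EDTA stopped the reaction. Finally, electrophoretic separation quantified product, and percent effect relative to controls was plotted against concentration.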

JAK1 = JAK1 (Homo sapiens (Human), UniProt P23458); test: JAK Caliper Enzyme Assay at 1 mM ATP, JAK1; format: biochemical
Outline: (§2)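 IC50 (nM) derived from percent conversion of fluorescently labelled peptide, measured by Caliper LabChip mobility-shift separation after EDTA stop. Each JAK family kinase domain (human, recombinant) run at 1 mM ATP and room temperature, conditions set to 20-30% product; DMSO wells define uninhibited baseline.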

JAK2 = JAK2 (Homo sapiens (Human), UniProt O60674); test: JAK Caliper Enzyme Assay at 1 mM ATP, JAK2; format: biochemical
Outline: as §1

JAK3 = JAK3 (Homo sapiens (Human), UniProt P52333); test: JAK Caliper Enzyme Assay at 1 mM ATP, JAK3; format: biochemical
Outline: as §2

[1] = test system: IL-12 signaling (TYK2 and JAK2), STAT4 phosphorylation; test: Human Whole Blood IL-12 Induced STAT4 Phosphorylation Assay; format: cell-based; details: IL-12 5 ng/mL, pSTAT4 in lymphocytes by flow cytometry
Experimental: Selected compounds were assessed for their ability to inhibit IL-12 signaling in a human whole blood flow cytometry assay. IL-12 signals through TYK2 and JAK2.
Human Whole Blood IL-12 Induced STAT4 Phosphorylation Assay
Test articles were prepared as 30 mM stocks in DMSO. An 11-point 2.5 dilution series was created in DMSO with a top concentration of 10 mM. Further dilution was done by adding 4 μL of the above test article solutions into 96 μL of PBS with a top concentration of 400 μM. Human whole blood was collected from healthy donors via vein puncture into Vacutainer collection tubes containing sodium heparin (Catalog No. 366480; Becton Dickinson, Franklin Lakes, N.J.). Blood was warmed to 37° C. prior to use. Human whole blood was aliquoted ([…]) in 96-well, deep-well, V-bottom plates and treated with compounds at 11 different concentrations (0.2% DMSO final) at 37° C. for 60 minutes. This was followed by a challenge with IL-12 ([…]; final, 5 ng/mL) for 15 minutes. Samples were treated with warm 1× Lyse/Fix buffer ([…]) to terminate activation and further incubated at 37° C. for 20 minutes to lyse red blood cells. Plates were centrifuged at 300×g for 5 minutes, supernatant was aspirated, and cells were washed with […] of staining buffer (PBS containing 0.5% fetal bovine serum and 0.01% sodium azide). The washed cell pellets were resuspended with […] of pre-chilled 90% methanol, and incubated at 4° C. for 30 minutes. Plates were centrifuged at 300×g for 5 minutes, supernatant containing 90% methanol was aspirated, and cells were washed with […] of staining buffer. Cell pellets were resuspended in staining buffer containing anti-pSTAT4-AlexaFluor647 (1 to 150 dilution, […]), and incubated at room temperature in the dark overnight.
Samples were transferred to 96-well U-bottom plates and flow cytometric analysis was performed on a FACSCalibur or LSRFortessa equipped with a HTS plate loader (BD Biosciences). The lymphocyte population was gated for histogram analysis of pSTAT4. Background fluorescence was defined using unstimulated cells and a gate was placed at the foot of the peak to include ˜0.5% gated population. The histogram statistical analysis was performed using CellQuestÔ Pro version 5.2.1 (BD Biosciences) or FACSDiva version 6.2 (BD Biosciences) software. Relative fluorescence unit (RFU), which measures the level of phospho STAT4, was calculated by multiplying the percent positive population and its mean fluorescence. Data from 11 compound concentrations (singlicate at each concentration) was normalized as a percentage of control based on the formula: % of Control=100'(A−B)/(C−B) where A is the RFU from wells containing compound and IL-12, B is the RFU from wells without IL-12 and compound (minimum fluorescence) and C is the RFU from wells containing only IL-12 (maximum fluorescence). Inhibition curves and IC50 values were determined using the Prism version 5 software (GraphPad, La Jolla, Calif.).

TYK2, sequence (P29597 897-1176): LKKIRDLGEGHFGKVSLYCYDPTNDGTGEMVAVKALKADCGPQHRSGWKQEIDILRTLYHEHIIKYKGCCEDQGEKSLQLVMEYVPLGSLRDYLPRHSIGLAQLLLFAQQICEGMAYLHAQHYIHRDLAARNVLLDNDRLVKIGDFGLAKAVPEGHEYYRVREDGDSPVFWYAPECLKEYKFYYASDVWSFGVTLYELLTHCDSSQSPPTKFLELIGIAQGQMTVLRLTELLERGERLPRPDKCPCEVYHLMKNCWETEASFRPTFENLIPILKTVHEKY
JAK2, sequence (O60674 849-1124): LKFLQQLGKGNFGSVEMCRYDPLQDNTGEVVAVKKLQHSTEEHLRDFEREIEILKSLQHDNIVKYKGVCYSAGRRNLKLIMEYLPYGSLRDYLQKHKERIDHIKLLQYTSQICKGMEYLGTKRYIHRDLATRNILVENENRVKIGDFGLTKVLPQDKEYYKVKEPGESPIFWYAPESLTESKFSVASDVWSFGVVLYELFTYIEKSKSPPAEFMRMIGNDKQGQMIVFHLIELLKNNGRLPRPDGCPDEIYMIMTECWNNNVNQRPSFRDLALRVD
JAK1, sequence (P23458 875-1153): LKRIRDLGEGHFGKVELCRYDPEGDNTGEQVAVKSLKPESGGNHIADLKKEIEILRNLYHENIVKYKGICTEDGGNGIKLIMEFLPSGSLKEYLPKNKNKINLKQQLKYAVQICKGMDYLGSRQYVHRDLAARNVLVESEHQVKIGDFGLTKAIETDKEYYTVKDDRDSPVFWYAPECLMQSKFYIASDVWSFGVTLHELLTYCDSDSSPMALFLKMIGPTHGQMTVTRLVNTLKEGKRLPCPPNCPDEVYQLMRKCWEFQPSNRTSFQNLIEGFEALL
JAK3, sequence (P52333 822-1111): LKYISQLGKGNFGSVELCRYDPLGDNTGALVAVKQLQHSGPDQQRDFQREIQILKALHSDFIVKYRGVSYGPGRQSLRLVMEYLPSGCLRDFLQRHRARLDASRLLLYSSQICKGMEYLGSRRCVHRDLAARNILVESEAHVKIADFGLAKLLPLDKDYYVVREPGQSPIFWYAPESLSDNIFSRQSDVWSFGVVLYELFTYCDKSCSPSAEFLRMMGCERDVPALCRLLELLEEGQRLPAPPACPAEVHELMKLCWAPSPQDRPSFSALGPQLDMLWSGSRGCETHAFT

Row | IC50 (TYK2) [nM] | IC50 (JAK1) [nM] | IC50 (JAK2) [nM] | IC50 (JAK3) [nM] | IC50 [1] [nM] | IC50 ([1]; Lymphocyte) [nM] | IC50 (TYK2; JAK Caliper enzyme assay) [nM] | IC50 (JAK1; JAK Caliper enzyme assay) [nM] | IC50 (JAK2; JAK Caliper enzyme assay) [nM] | IC50 (JAK3; JAK Caliper enzyme assay) [nM] | Compound
1 | 8 | 14 | 21 | 1240 | 76 | – | – | – | – | – | N#CC[C@]1(n2ccc(-c3nc(-c4cc(N)[nH]n4)cc4ncccc34)n2)C[C@H](C#N)C1 [Example 41, trans-3-{3-[7-(5-amino-1H-pyrazol-3-yl)-1,6-naphthyridin-5-yl]-1H-pyrazol-1-yl}-3-(cyanomethyl)cyclobutanecarbonitrile]
2 | 7 | 55 | 13 | 873 | 40 | – | – | – | – | – | Cn1cc(-c2cc3ncccc3c(-c3ccn([C@]4(CC#N)C[C@H](C#N)C4)n3)n2)cn1 [Example 103, cis-3-(cyanomethyl)-3-{3-[7-(1-methyl-1H-pyrazol-4-yl)-1,6-naphthyridin-5-yl]-1H-pyrazol-1-yl}cyclobutanecarbonitrile]

Second part, the compound before the results:

Row | Compound | IC50 (TYK2) [nM] | IC50 (JAK1) [nM] | IC50 (JAK2) [nM] | IC50 (JAK3) [nM] | IC50 [1] [nM] | IC50 ([1]; Lymphocyte) [nM] | IC50 (TYK2; JAK Caliper enzyme assay) [nM] | IC50 (JAK1; JAK Caliper enzyme assay) [nM] | IC50 (JAK2; JAK Caliper enzyme assay) [nM] | IC50 (JAK3; JAK Caliper enzyme assay) [nM]
3 | N#CC[C@H]1C[C@@](CC#N)(n2ccc(-c3nc(-c4cn[nH]c4)cc4ncccc34)n2)C1 [Example 78, 2,2′-(cis-1-{3-[7-(1H-pyrazol-4-yl)-1,6-naphthyridin-5-yl]-1H-pyrazol-1-yl}cyclobutane-1,3-diyl)diacetonitrile] | 14 | 172 | 104 | 8610 | 76 | – | – | – | – | –
4 | N#CCN1CC(CC#N)(n2ccc(-c3nc(-c4cnn(C5COC5)c4)cc4ncccc34)n2)C1 [Example 120, 2,2′-[3-(3-{7-[1-(oxetan-3-yl)-1H-pyrazol-4-yl]-1,6-naphthyridin-5-yl}-1H-pyrazol-1-yl)azetidine-1,3-diyl]diacetonitrile] | 15 | 521 | 28 | 8520 | – | 44 | – | – | – | –
5 | N#CC[C@]1(n2ncc(-c3cc(-c4cn[nH]c4)cc4ncccc34)n2)C[C@H](C#N)C1 [Example 315, trans-3-(cyanomethyl)-3-{4-[7-(1H-pyrazol-4-yl)quinolin-5-yl]-2H-1,2,3-triazol-2-yl}cyclobutanecarbonitrile] | 19 | 524 | 215 | > 10000 | 123 | – | – | – | – | –
6 | Cn1cc(-c2cc(-c3cnn([C@]4(CC#N)C[C@H](C#N)C4)c3)n3ccnc3c2)cn1 [Example 458, cis-3-(cyanomethyl)-3-{4-[7-(1-methyl-1H-pyrazol-4-yl)imidazo[1,2-a]pyridin-5-yl]-1H-pyrazol-1-yl}cyclobutanecarbonitrile] | – | – | – | – | 177 | – | 25 | 1680 | 204 | > 10000
